Results published in US20230255943A1, “MMP-9 AND MMP-12 INHIBITION FOR TREATING SPINAL CORD INJURY OR RELATED INJURY TO NEUROLOGICAL TISSUE” (The University of Birmingham, priority 2020, published 2023).
pIC50: −log10 of the molar value. Where “and” joins values, the source holds several entries; their conditions need not be identical. Identical values can stand only once. Counter-ions that a name gives are not always drawn.

Key:
[1] = system: J774A.1, RAW 264.7 and primary mouse peritoneal macrophages; assay: Transwell migration assay of macrophages; type: cell-based; settings: J774A.1 and RAW 264.7, 3 h
Method: J774A.1 cells (#TIB-67; ATCC, Middlesex, UK) were cultured in DMEM supplemented with 10% FBS, 100 U/ml penicillin, 100 μg/ml streptomycin, and 0.25 μg amphotericin B. Cells were seeded in T75 tissue-culture flasks and maintained at 37° C. and 5% CO2. RAW 264.7 cells (#TIB-71; ATCC) were maintained in DMEM containing 10% FBS.
Resident peritoneal cells were harvested from adult C57BL/6 mice (6-8 weeks old) by injection of 10 ml of PBS using a 21G needle into the peritoneal cavity and harvesting the cell suspension, as described previously (Rosas M, Davies L C, Giles P J, Liao C T, Kharfan B, Stone T C, et aL. The transcription factor Gata6 links tissue macrophage phenotype and proliferative renewal. Science 2014; 344(6184): 645-8). Peritoneal cells were then centrifuged at 100×g for 10 min and the cell pellet resuspended in DMEM/F12 medium. Cell were incubated at 37° C., for 2 h and non-adherent cells were removed by gentle washing. Cells were expanded in DMEM/F12 medium containing 10% FBS. For migration assays, cells were grown in RPMI containing 0.02% BSA for 24 h to obtain quiescent cells prior to using them in Transwell migration assays as described below.
Migration assays were performed with J774A.1, RAW 264.7 and primary mouse peritoneal macrophages in 6.5 mm Transwell plates (ThermoFisher) with 8 μm pore inserts, as described previously (Green et al., 2012). Briefly, inserts were coated with rat tail type I collagen and 1×10^5 cells (J774A.1, RAW 264.7 or primary mouse macrophages) were resuspended in chemotaxis buffer (RMPI 1640 plus 0.02% BSA, (termed RPMI from herein)) and added to the upper chamber and incubated with migration medium, with or without known chemotactic factors MCP-1 (100 ng/ml) and PMA (100 nM), or AZD1236, GM6001, SD2590 and MMP-9 Inhibitor I (all used at 1, 10, 100, 1000 ng/ml) added to the lower chamber. Cells were allowed to migrate through the insert membrane for 3 h at 37° C., before washing inserts with PBS. Non-migrating cells remaining on the upper surface were removed with a cotton swab whilst the migrated cells on the insert were fixed, stained with Diff-Quick (#26096, Electron Microscopy Science, Hatfield, UK), and mounted on glass slides. Migration was measured visually by counting using a light microscope at 40× magnification. The mean number of cells in 10 random fields were calculated for each treatment by an experimenter masked to the treatment conditions. A migration index was calculated by dividing the number of cells that migrated in response to the chemokine by the number of cells that migrated randomly (RPMI medium) with a reference index>1, indicating chemotaxis.

[2] = system: DC injury; assay: Example 2: spinal cord water content as measure of injury-induced oedema; settings: in vivo
Method: The lesion site+3 mm either side for mice and the lesion site+5 mm either side for the rat DC model were dissected out and the water content of the spinal cord (as a measure of oedema) was determined at 3 days after DC and CC SCI, as described previously (S. Li, C. H. Tator, Effects of MK801 on evoked potentials, spinal cord blood flow and cord edema in acute spinal cord injury in rats. Spinal Cord 37, 820-832 (1999)). Spinal cords containing the lesion site were weighed on aluminium foil, dried at 105° C. for 24 hr, and re-weighed. The percent water content was calculated as: water content (%)=[(wet weight-dry weight)/wet weight]×100%.
Using similar techniques to those described in Example 1, the water content in the spinal cord as a measure of injury-induced oedema was determined for both AZD1236 & AZD3342 (see FIG. 20).

[3] = molecular target: human MMP-12 (Homo sapiens, UniProt P39900); assay: Inhibition of human MMP-12 (IC50); type: biochemical
[4] = molecular target: rat MMP-12 (Rattus norvegicus, UniProt Q63341); assay: Inhibition of rat MMP-12; type: biochemical
[5] = molecular target: rat MMP-9 (Rattus norvegicus, UniProt P50282); assay: Inhibition of rat MMP-9; type: biochemical
[6] = molecular target: human MMP-9 (Homo sapiens, UniProt P14780); assay: Inhibition of human MMP-9 (IC50); type: biochemical
Sequence of human MMP-9 (P14780 94-707): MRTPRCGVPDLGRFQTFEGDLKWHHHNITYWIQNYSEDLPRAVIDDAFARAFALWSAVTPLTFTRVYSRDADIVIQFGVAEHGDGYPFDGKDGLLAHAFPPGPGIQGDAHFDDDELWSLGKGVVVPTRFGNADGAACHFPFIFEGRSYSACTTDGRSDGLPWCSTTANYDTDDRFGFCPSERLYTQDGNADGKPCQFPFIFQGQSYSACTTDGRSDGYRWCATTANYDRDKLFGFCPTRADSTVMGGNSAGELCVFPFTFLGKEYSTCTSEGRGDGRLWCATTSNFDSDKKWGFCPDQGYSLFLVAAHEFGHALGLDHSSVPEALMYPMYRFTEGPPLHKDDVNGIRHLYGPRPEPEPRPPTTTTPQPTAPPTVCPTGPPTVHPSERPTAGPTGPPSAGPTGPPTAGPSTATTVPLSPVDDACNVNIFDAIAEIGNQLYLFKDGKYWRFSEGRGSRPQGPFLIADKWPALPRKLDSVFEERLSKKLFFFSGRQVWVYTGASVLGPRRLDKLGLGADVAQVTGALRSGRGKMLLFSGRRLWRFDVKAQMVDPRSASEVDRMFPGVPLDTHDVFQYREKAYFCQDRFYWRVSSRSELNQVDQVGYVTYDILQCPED

Sequence of human MMP-12 (P39900 106-470): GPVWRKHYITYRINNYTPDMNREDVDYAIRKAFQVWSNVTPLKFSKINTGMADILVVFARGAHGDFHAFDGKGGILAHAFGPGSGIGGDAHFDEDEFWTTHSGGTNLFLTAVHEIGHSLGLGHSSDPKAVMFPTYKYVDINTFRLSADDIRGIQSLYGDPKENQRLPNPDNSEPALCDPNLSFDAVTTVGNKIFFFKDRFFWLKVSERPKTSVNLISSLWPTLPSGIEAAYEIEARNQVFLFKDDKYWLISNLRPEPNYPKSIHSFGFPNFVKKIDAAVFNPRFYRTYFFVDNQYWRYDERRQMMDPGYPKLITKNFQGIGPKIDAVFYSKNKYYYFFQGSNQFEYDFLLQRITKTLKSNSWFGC
Sequence of rat MMP-12 (Q63341 102-465): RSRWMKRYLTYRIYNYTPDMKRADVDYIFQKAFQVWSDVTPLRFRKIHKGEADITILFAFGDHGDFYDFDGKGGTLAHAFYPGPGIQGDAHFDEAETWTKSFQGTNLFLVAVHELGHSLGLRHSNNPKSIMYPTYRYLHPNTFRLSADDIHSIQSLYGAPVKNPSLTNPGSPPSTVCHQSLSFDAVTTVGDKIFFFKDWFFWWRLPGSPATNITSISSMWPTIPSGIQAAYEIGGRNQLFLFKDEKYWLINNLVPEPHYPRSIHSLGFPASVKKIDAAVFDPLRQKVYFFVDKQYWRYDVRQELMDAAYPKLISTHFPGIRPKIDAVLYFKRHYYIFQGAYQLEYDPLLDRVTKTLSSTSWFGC
Sequence of rat MMP-9 (P50282 108-708): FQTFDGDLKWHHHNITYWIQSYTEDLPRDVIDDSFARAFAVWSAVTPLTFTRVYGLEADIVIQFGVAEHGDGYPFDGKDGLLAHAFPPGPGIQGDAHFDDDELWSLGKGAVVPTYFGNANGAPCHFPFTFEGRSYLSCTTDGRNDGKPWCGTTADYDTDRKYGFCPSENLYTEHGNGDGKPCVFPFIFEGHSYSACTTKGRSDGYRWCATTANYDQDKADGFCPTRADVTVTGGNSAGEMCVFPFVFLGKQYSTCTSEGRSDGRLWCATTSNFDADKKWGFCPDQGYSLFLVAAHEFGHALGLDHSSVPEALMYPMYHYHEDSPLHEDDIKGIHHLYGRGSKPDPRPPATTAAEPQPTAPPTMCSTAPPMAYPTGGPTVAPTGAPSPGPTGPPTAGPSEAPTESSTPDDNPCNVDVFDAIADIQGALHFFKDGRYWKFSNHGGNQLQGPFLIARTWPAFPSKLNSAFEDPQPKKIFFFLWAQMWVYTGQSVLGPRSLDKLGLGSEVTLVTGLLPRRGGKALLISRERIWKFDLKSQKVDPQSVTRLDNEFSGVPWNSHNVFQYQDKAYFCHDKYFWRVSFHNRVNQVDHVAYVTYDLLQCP

| Structure (SMILES) | macrophage migration (migration index, chemotaxis) [1] | DC injury-induced increase in water content (FIG. 20) [2] | pIC50 [3] | activity against rat MMP-12 [4] | activity against rat MMP-9 [5] | pIC50 [6] | pIC50 ([4]; read-out: IC50 against rat MMP-12) | pIC50 ([5]; read-out: IC50 against rat MMP-9) |
| --- | --- | --- | --- | --- | --- | --- | --- | --- |
| CCN(CC)Cc1cc(C)c(N(Cc2ccccc2)S(=O)(=O)c2ccc(OC)cc2)c(C(=O)NO)c1 [MMP-9 Inhibitor I, reference compound] | not affected | – | – | – | – | – | – | – |
| CNC(=O)[C@H](Cc1c[nH]c2ccccc12)NC(=O)[C@@H](CC(=O)NO)CC(C)C [GM6001, (2R)—N^4-Hydroxy-N^1-[(1S)-1-(1H-indol-3-ylmethyl)-2-(methylamino)-2-oxoethyl]-2-(2-methylpropyl)butanediamide, reference compound] | not affected | – | – | – | – | – | – | – |
| COCCN1CCC(C(=O)NO)(S(=O)(=O)c2ccc(Oc3ccc(OC(F)(F)F)cc3)cc2)CC1 [SD2590, N-Hydroxy-1-(2-methoxyethyl)-4-[4-[4-(trifluoromethoxy)phenoxy]phenyl]sulfonyl]-4-piperidinecarboxamide hydrochloride, reference compound] | not affected | – | – | – | – | – | – | – |
| C[C@]1(CS(=O)(=O)N2CC=C(C#Cc3cnc(C4CC4)nc3)CC2)NC(=O)NC1=O [AZD1236] | no effect on chemotaxis | completely suppressed | 8.21 | not active | not active | 8.35 | – | – |
| C[C@]1(CS(=O)(=O)N2CCC(Oc3ccc(Cl)cn3)CC2)NC(=O)NC1=O [AZD3342, (5S)-5-[4-(5-chloro-pyridin-2-yloxy)-piperidine-1-sulfonylmethyl]-5-methylimidazolidine-2,4-dione] | – | completely suppressed | 8.22 and 8.23 | – | – | 8.00 | 7.46 | 6.93 |
